# According to patent US20060078535A1, “Anticancer compounds and methods” (The Regents of the University of Michigan, priority 2004, published 2006):
# Entries after “also recorded” stand apart in the source; their conditions may differ. Where no end group is shown, it is not given here. [ ]: non-standard residue; d: D form. hCys = N[C@@H](CCS)C(=O)O
# B1: Ac-PHSCNGGK(biotin)-NH2 (peptide)
# peptide: Ac-PHSCNGG-{K(biotin)-NH2}
# modifications: also: further groups not given here
# notes: also called biotinylated PHSCN peptide
# Legend:
# [1] = system: DU 145 human prostate carcinoma; conditions: mouse, in vivo; cited from earlier work
# metastatic disease = conditions: human, in vivo
# Method: Livant et al., “The PHSCN Sequence As An Anti-Invasive For Human Prostate Carcinoma Cells And As An Anti-Tumorigenic And Anti-Metastatic Agent For Rat Prostate Cancer” Cancer Research 60:309-320 (2000). […] In another embodiment, however, PHSCN (SEQ ID NO:86) peptide may also induce apoptosis. Furthermore, thrice-weekly PHSCN (SEQ ID NO:86) peptide intravenous doses (0.1 to 0.5 mg/kg) prevent cancer progression in metastatic ovarian cancer and metastatic prostate cancer patients in the Phase I clinical trial, for over a 6 to 10 month period.
# MatLyLu (MLL) cells = assay: SU-ECM invasion assay, rat MatLyLu (MLL) prostate carcinoma cells; assay type: cell-based; conditions: 10% FCS, varying concentrations
# Method: Adult Strongylocentrotus purpuratus sea urchins were obtained from Pacific BioMarine, and their embryos were cultured to the early pluteus stage in artificial sea water at 15° C. SU-ECM were prepared from them by treatment with nonionic detergent and strerilized by dilution in the appropriate media. […]
# (§1) Invasion assays were coded and scored blindly by microscopic examination under phase contrast at 200- and 400-fold magnification. Each cell contacting an SU-ECM was scored for its position relative to the exterior or interior surfaces. […] The minimum viability of the cells in each assay was always ascertained at the time of assay by determining the fraction of spread, adherent cells on the bottom of each well scored.
# (§2) An invasion frequency is defined as the fraction of cells in contact with basement membranes which were located in their interiors at the time of assay. […] Invasion frequencies were determined multiple times for each cell type assayed. For each type of cell assayed the mean and standard deviation of the invasion frequencies were calculated. […]
# [2] = system: neonatal, human fibroblasts; assay: SU-ECM basement membrane invasion by fibroblasts; assay type: cell-based; conditions: with or without serum as stated
# Excerpt: Since, during wound reepithelialization, keratinocytes migrate through the connective tissue of the provisional matrix to “wall off” portions of the wound, as well as through the adjacent stroma, it is not surprising that they are also stimulated to migrate through the matrix of SU-ECM invasion substrates by the PHSRN (SEQ ID NO: 1) sequence. […]
# as §1, §2
# [3] = biological target: T1, immobilized α5β1 integrin (UniProt P08648 42-1049; P05556 21-798); assay: saturation binding of PHSCNGGK(biotin) to immobilized α5β1 integrin, read as optical density at 490 nm (FIG. 11)
# T1 construct: also called α5β1 integrin receptor; α5β1 integrin fibronectin receptor
# T1 sequence (P08648 42-1049, chain 1 of 2): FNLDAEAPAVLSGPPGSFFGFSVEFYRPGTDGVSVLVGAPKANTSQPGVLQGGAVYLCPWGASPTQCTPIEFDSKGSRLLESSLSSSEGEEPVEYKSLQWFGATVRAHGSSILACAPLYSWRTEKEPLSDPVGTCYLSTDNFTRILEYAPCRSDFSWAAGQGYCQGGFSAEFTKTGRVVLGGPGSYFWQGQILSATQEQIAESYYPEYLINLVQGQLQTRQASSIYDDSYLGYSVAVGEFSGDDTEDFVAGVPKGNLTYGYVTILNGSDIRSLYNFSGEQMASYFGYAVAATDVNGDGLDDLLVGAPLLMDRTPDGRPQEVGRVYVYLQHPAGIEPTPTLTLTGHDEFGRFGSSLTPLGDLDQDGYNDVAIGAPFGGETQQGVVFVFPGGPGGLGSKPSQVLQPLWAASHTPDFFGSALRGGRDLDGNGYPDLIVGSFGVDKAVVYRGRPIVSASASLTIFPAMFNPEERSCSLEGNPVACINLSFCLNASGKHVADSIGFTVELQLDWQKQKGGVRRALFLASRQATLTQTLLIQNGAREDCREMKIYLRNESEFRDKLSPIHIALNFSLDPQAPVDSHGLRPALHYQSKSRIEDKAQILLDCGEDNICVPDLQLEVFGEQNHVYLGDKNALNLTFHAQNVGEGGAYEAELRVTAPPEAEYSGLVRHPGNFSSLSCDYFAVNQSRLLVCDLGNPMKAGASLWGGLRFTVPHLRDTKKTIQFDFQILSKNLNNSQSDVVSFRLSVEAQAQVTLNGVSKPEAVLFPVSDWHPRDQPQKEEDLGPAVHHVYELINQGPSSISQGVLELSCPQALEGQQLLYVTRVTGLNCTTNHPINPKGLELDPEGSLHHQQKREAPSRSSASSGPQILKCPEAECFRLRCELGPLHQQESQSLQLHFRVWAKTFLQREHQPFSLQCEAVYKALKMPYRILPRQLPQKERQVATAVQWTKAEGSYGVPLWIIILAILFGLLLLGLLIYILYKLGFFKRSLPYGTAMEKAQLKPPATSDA
# T1 sequence (P05556 21-798, chain 2 of 2): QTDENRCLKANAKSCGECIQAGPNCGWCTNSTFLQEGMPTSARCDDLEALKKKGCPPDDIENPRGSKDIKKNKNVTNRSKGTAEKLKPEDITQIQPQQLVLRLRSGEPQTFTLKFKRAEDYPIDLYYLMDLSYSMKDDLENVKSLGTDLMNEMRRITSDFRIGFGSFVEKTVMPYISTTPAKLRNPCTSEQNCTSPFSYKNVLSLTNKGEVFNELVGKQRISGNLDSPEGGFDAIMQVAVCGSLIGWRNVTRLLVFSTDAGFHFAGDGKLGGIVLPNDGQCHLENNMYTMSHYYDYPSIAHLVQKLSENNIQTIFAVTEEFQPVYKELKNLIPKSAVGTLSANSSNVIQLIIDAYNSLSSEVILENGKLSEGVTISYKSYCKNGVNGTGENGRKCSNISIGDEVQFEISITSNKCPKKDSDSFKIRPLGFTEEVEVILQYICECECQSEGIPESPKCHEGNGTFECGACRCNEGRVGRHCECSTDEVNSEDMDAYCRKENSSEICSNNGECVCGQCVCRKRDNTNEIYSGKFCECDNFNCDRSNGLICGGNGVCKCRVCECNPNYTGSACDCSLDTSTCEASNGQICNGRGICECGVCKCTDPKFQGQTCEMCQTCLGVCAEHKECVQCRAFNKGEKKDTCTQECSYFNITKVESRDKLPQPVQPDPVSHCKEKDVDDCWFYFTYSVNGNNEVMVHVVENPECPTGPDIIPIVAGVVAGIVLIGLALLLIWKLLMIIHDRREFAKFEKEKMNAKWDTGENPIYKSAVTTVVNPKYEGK
molecule,measurement,setting,value
"Ac-PHSCN-NH2 (N-terminus and C-terminus assumed) [PHSCN, Pro-His-Ser-Cys-Asn]",tolerability of treated mice,[1],no obvious loss of vigor or difficulty in healing
same,total treatment-emergent serious adverse events,metastatic disease,11
PHS(hC)N: homo-cysteine containing peptide (PHS[hCys]N),inhibition of serum-induced invasion,MatLyLu (MLL) cells,substantially inhibits invasion at lower concentrations; also recorded: completely inhibits invasion at higher concentrations
intact plasma fibronectin: purified bovine plasma fibronectin (Sigma),fibroblast invasion of SU-ECM basement membranes,[2],fails to stimulate fibroblast invasion
B1,Kd,[3],272 nM
